Activity calls are given as the source filed them.
Columns and labels:
[1] = target: Mitogen-activated protein kinase 10 (Homo sapiens, UniProt P53779); experiment: Dose response biochemical screening assay for inhibitors of c-Jun N-Terminal Kinase 3 (JNK3). [Related pubchem assays: 746 ]
[2] = target: FAD-linked sulfhydryl oxidase ALR (Homo sapiens, UniProt P55789); experiment: inhibitors of human ALR sulfhydryl oxidase, dose response, biochemical, H2O2 detection, luminescence, cherry-pick (AID 493248)
[3] = Shn3 3'UTR reporter inhibitors, dose response, cell-based, Clone20 osteoblasts, firefly luciferase, cherry-picked (AID 624132); format: functional;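 also: firefly luciferase luminescence from reporter carrying the Shn3 3'UTR in osteoblasts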
[4] = HepG2 cell cytotoxicity, dose response, cytotoxicity control for Shn3 inhibitor project, CellTiter-Glo, cherry-picked (AID 624134); format: functional, cell-based
[5] = control 3'UTR Renilla luciferase suppression, dose response, counter-screen for Shn3 inhibitor project, cell-based, Clone20-Shn3RL, cherry-picked (AID 624133); format: functional
Paired box protein Pax-8 = Paired box protein Pax-8 (Homo sapiens, UniProt Q06710); experiment: inhibitors of PAX8-driven TPO luciferase reporter, dose response, RMG-I cells, cherry-pick (AID 687027); format: functional, cell-based;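 also: luciferase reporter driven by Pax8 target thyroperoxidase promoter measured by SteadyGlo luminescence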
[6] = reduction of Shn3 3'UTR firefly luciferase signal, dose response, Schnurri-3 inhibitor project, cell-based, Clone20 osteoblasts, cherry-pick, set 2 (AID 720490); format: functional;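 also: actives lower the luminescence signal as inhibitors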
[7] = inhibitors of PGC1a acetylation in cells, dose response, cell-based, cherry-picked samples (AID 720514); format: functional;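 also: potency may reflect raised or lowered acetylation signal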
[8] = inhibitors of control Renilla luciferase reporter, dose response, counter-screen for Shn3 3'UTR targeting project, Clone20-Shn3RL cells, dual-Glo, cherry-pick, set 2 (AID 720724); format: functional, cell-based; details: Dual-Go Shn3RL
[9] = non-specific cell cytotoxicity, dose response, cytotoxicity control for PAX8 inhibitor project, plate reader, dry powder samples (AID 743021); format: functional, cell-based
Caspase-6 = Caspase-6 (Homo sapiens, UniProt P55212); experiment: human caspase-6 inhibitors, dose response, biochemical, VEID-R110 fluorescence, cherry-pick (AID 720632)
[10] = HeLa 2N DNA content increase, dose response, cell-based, IC50 (AID 1117349); format: functional
[11] = Concentration-dependent survival of SW480 colon cancer line, luminescence detection with CellTiter-Glo, half-maximal inhibitory concentration (AID 1117338); format: functional
[12] = RKO cell viability reduction, dose response, CellTiter-Glo luminescence (AID 1117322); format: functional
[13] = cytotoxicity toward HCT116 cells – cell-based, CellTiter-Glo luminescence, IC50, dose response (AID 1117332); format: functional; details: HCT-116
[14] = SNU-C1 cell viability reduction, dose response, CellTiter-Glo luminescence (AID 1117323); format: functional, cell-based
[15] = cytotoxicity toward Colo320 cells – cell-based, CellTiter-Glo luminescence, IC50, dose response (AID 1117334); format: functional; details: COLO 320
[16] = HeLa 4N DNA content increase, dose response, cell-based, IC50 (AID 1117351); format: functional
[17] = cytotoxicity toward HT-29 cells – cell-based, CellTiter-Glo luminescence, IC50, dose response (AID 1117330); format: functional
[18] = CellTiter-Glo luminescent dose response of DLD-1 viability loss (AID 1117352); format: functional
[19] = HCT116 cell viability decrease, GSK3B pretreatment – CellTiter-Glo, IC50, dose response (AID 1117339); format: functional; details: HCT-116
Cytochrome P450 2C19 = Cytochrome P450 2C19 (Homo sapiens, UniProt P33261); experiment: qHTS Assay for Inhibitors and Substrates of Cytochrome P450 2C19. [Related pubchem assays: 410 ]; format: ADME; details: read-out: Potency
Chain of Cytochrome P450 2C19 (P33261 whole entry): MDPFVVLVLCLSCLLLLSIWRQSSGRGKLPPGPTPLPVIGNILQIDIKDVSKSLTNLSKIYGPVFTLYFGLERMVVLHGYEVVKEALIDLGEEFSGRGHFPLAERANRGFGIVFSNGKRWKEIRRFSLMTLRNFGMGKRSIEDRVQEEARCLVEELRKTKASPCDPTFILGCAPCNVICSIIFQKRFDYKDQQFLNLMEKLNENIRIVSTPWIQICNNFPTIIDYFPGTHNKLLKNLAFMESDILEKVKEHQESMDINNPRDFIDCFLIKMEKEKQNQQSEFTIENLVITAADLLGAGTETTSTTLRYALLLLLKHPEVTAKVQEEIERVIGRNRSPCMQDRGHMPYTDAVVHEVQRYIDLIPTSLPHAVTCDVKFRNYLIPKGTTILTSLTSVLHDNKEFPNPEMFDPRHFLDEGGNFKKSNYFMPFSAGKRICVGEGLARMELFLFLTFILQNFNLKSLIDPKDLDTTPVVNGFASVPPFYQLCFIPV

Chain of FAD-linked sulfhydryl oxidase ALR (P55789 whole entry): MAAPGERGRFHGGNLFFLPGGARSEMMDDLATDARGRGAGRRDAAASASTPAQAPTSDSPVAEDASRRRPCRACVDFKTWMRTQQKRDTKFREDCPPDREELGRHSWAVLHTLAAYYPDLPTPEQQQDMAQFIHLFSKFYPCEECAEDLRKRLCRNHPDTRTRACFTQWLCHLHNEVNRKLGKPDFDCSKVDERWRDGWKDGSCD
Chain of Paired box protein Pax-8 (Q06710 whole entry): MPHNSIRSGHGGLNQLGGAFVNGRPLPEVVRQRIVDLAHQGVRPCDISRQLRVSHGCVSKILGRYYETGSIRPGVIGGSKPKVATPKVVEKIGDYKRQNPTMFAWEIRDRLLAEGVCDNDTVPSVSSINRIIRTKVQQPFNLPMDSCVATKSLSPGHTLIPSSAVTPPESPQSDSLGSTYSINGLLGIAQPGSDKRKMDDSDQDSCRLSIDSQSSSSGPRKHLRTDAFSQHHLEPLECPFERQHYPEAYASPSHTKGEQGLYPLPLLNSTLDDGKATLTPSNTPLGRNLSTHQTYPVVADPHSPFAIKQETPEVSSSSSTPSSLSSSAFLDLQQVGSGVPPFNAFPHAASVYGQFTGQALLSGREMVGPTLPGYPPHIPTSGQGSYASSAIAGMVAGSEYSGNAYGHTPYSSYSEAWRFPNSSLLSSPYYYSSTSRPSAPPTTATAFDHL
Chain of Caspase-6 (P55212 24-179 limits assumed): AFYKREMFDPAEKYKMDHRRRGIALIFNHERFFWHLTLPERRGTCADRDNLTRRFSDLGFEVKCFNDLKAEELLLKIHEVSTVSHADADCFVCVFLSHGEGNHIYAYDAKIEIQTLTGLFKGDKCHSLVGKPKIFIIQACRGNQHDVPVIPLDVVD
Chain of Caspase-6 (P55212 194-293 limits assumed): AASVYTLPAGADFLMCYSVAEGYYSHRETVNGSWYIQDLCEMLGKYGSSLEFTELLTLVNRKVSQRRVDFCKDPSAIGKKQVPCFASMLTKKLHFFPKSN
Chain of Mitogen-activated protein kinase 10 (P53779 whole entry): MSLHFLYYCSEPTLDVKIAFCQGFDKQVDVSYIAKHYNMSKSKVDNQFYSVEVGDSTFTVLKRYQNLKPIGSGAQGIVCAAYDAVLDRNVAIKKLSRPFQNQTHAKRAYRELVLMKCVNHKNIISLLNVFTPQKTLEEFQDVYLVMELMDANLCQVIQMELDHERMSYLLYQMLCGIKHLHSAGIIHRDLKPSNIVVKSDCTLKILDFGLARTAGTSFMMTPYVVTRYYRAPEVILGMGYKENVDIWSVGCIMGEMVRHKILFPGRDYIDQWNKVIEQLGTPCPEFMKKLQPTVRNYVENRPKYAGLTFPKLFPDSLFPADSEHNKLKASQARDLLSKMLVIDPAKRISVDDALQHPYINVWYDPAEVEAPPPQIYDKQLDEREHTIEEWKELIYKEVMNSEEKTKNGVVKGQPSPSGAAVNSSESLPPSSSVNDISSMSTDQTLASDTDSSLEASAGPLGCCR

c1ccc(Nc2ccccc2Nc2ccccn2)nc1
IC50 [1]: 18.4 µM (not active) | AC50 [2]: 773 nM (active)

Oc1nc2ccccc2n1C1CCN(C(CCc2ccccc2)c2nnnn2Cc2ccccc2)CC1 (configuration not stated)
AC50 [3]: 1.23 µM (active) | AC50 [4]: 13.5 µM (active) | AC50 [5]: 60.9 µM (active) | AC50 (Paired box protein Pax-8): 1.4 µM (active) | AC50 [6]: 3.97 µM (active) | AC50 [7]: 3.88 µM (active) | AC50 [8]: 20.3 µM (active) | AC50 [9]: 11.4 µM (active)

O=C(Cc1cccs1)N1Cc2ccccc2-n2nncc2C1
AC50 (Caspase-6): 5.36 µM (active)

Cc1cc(O)c2c3c4c(cc(O)c13)C(C)(C)C(=O)c1c(O)cc(O)c(c1-4)C2=O [HELIOMYCIN]
IC50 [10]: > 10 µM (inactive) | IC50 [11]: 58 nM (active) | IC50 [12]: 75.4 nM (active) | IC50 [13]: 77.5 nM (active) | IC50 [14]: 332 nM (active) | IC50 [15]: 82 nM (active) | IC50 [16]: > 10 µM (inactive) | IC50 [17]: 3.01 µM (active) | IC50 [18]: 70.9 nM (active) | IC50 [19]: 57.4 nM (active)

O=c1cc(-c2ccc(O)c(O)c2)oc2cccc(O)c12
AC50 (Cytochrome P450 2C19): 15.8 µM (inconclusive)

— ChEMBL document CHEMBL1201862, “PubChem BioAssay data set” (2004)
